Assay results taken from patent US20190330142A1, “INHIBITORS OF MTOR-DEPTOR INTERACTIONS AND METHODS OF USE THEREOF” (The Regents of the University of California, priority 2016, published 2019).
Entries after “also recorded” stand apart in the source; their conditions may differ. Read-outs that look alike come from different tables or passages of the source.

Tests used:
8226 MM cell line = assay: MTT cytotoxicity assay, 8226 MM cells; details: for IC50: 48 h; for anti-MM cytotoxicity in MTT assay compared to parent B: 48 hr MTT
Procedure: In mTORC1, mTOR phosphorylates the p70S6 kinase. Thus, a Western blot was used to test for induction of p70 phosphorylation in this secondary screen. Compounds were tested at 0.5, 1, and 2 uM with 6 hrs in vitro exposure. […] A summary of the p70 phosphorylation data from 4 separate experiments where derivatives were used at 0.5 uM, is shown in FIG. 3B. These first 8 derivatives were also screened for cytotoxicity against the same 8226 MM cell line in 48 hr MTT assays.
P70 phosphorylation was measured in 8226 cells treated for 6 hrs. […] The structures and biological activity of all derivatives are shown in Tables 1-4, categorized by structural modification.
The MTT assay was performed by seeding 1-2×10^4 target cells in 0.1 ml of complete media into wells of a 96 well microtiter plate. After incubation with compounds, the reduction of MTT to formazan by live cells was determined with a microplate ELISA reader equipped with a 570 nm filter.
The induction of p70 phosphorylation by derivative compounds was determined by densitometry, comparing immunoblot signals of phosphorylated p70 vs total p70. This ratio was then compared to that resulting from parental compound B, with the latter ratio arbitrarily placed at ‘1’. The IC50 for MTT cytotoxicity was determined using a range of concentrations of derivatives. Percent apoptosis was enumerated by flow cytometry in drug-treated cultures by subtracting control apoptosis determined from DMSO-treated cultures.

[1] = test system: p70 phosphorylation (mTORC1 activity) in 8226 cells; assay: p70 phosphorylation Western blot (TORC1 activity) in 8226 cells; type: cell-based; details: for induction of p70 phosphorylation / p70 phosphorylation vs the parent B: 6 hrs; for p70 phosphorylation vs the parent B: compound B arbitrarily 1
Procedure: In mTORC1, mTOR phosphorylates the p70S6 kinase.
The 8226 and MM1.S myeloma cell lines were purchased from ATCC. The cell lines were characterized by FISH analysis and shown to contain MAF/Ig translocations. Western blot confirmed a significant over-expression of DEPTOR protein. Both lines were tested for mycoplasma within the last 6 months and were negative. Western blot assay—Protein was extracted and separated by 12.5% SDS-PAGE as previously described (see new ref below). Proteins were transferred to polyvinylidene difluoride membranes and their expression was detected utilizing specific antibodies purchased from Cell Signaling (Beverly, Mass.).

MM1.S MM cell line = assay: MTT cytotoxicity assay, MM1.S cells; type: cell-based; details: Homo sapiens, 48 hr
Procedure: The MTT assay was performed by seeding 1-2×10^4 target cells in 0.1 ml of complete media into wells of a 96 well microtiter plate. After incubation with compounds, the reduction of MTT to formazan by live cells was determined with a microplate ELISA reader equipped with a 570 nm filter. Quadruplicate wells were run for each group and the SD of each group was always <5% of the mean.

[2] = 8226 cells, 0.5 uM, compared to compound B
[3] = read-out: MTT (IC50, uM) 8226, 48 hr

Fc1ccccc1NN=C1C(Cl)=C(Cl)C(Cl)=C1Cl [3j, 1-(2-Fluorophenyl)-2-(perchlorocyclopenta-2,4-dien-1-ylidene)hydrazine]
IC50 (8226 MM cell line; read-out: MTT (IC50, uM) 8226): > 3 µM
induction of p70 phosphorylation [1, 2]: no activity
p70 phosphorylation vs the parent B ([1]; 8226 cells, 0.5 uM): no increase
IC50 (MM1.S MM cell line): > 3 µM

NN=C1c2ccccc2-c2ccccc21 [6a, (9H-Fluoren-9-ylidene)hydrazine]
IC50 (8226 MM cell line; read-out: MTT (IC50, uM) 8226): > 5 µM
anti-MM cytotoxicity in MTT assay compared to parent B (8226 MM cell line): did not show any improvement
induction of p70 phosphorylation [1, 2]: did not show any improvement
p70 phosphorylation vs the parent B ([1]; 8226 cells, 0.5 uM): no increase

Cc1cccc(NN=C2C(Cl)=C(Cl)C(Cl)=C2Cl)c1 [3h, 1-(Perchlorocyclopenta-2,4-dien-1-ylidene)-2-(m-tolyl)hydrazine]
IC50 (8226 MM cell line; read-out: MTT (IC50, uM) 8226): 2 µM
p70 phosphorylation vs the parent B ([1]; 8226 cells, 0.5 uM): no increase
IC50 (MM1.S MM cell line): > 3 µM

C#CCOC(=O)NN=C1C(Cl)=C(Cl)C(Cl)=C1Cl [compound 4h, Prop-2-yn-1-yl 2-(perchlorocyclopenta-2,4-dien-1-ylidene)hydrazine-1-carboxylate]
IC50 (8226 MM cell line; read-out: MTT (IC50, uM) 8226): 0.8 µM
anti-MM cytotoxicity in MTT assay compared to parent B (8226 MM cell line): some cytotoxicity; also recorded: enhanced cytotoxic effects
induction of p70 phosphorylation [1, 2]: minimal increase

Fc1cccc(NN=C2c3ccccc3-c3ccccc32)c1 [6d, 1-(9H-Fluoren-9-ylidene)-2-(3-fluorophenyl)hydrazine]
IC50 (8226 MM cell line; read-out: MTT (IC50, uM) 8226): > 5 µM
anti-MM cytotoxicity in MTT assay compared to parent B (8226 MM cell line): did not show any activity
induction of p70 phosphorylation [1, 2]: did not show any activity
p70 phosphorylation vs the parent B ([1]; 8226 cells, 0.5 uM): no increase
IC50 (MM1.S MM cell line): > 5 µM

Fc1cccc(NN=C2C(Cl)=C(Cl)C(Cl)=C2Cl)c1 [3e, 1-(3-Fluorophenyl)-2-(perchlorocyclopenta-2,4-dien-1-ylidene)hydrazine]
IC50 (8226 MM cell line; read-out: MTT (IC50, uM) 8226): 0.5 µM
anti-MM cytotoxicity in MTT assay compared to parent B (8226 MM cell line): lower IC50s; also recorded: enhanced cytotoxic effects
IC50 (MM1.S MM cell line): 1.5 µM

CN(C)N=C1C(Cl)=C(Cl)C(Cl)=C1Cl [compound 3a, 1,1-Dimethyl-2-(perchlorocyclopenta-2,4-dien-1-ylidene)hydrazine]
IC50 (8226 MM cell line; read-out: MTT (IC50, uM) 8226): > 3 µM
p70 phosphorylation vs the parent B ([1]; 8226 cells, 0.5 uM): no increase
IC50 (MM1.S MM cell line): > 3 µM

ClC1=C(Cl)C(Cl)=C(Cl)C1=NNc1ccccc1 [3d, 1-(Perchlorocyclopenta-2,4-dien-1-ylidene)-2-phenylhydrazine]
IC50 (8226 MM cell line; read-out: MTT (IC50, uM) 8226): 0.6 µM
anti-MM cytotoxicity in MTT assay compared to parent B (8226 MM cell line): lower IC50s; also recorded: enhanced cytotoxic effects
IC50 (MM1.S MM cell line): 2 µM

ClC1=C(Cl)C(Cl)=C(Cl)C1=NN(c1ccccc1)c1ccccc1 [3l, 2-(Perchlorocyclopenta-2,4-dien-1-ylidene)-1,1-diphenylhydrazine]
IC50 (8226 MM cell line; read-out: MTT (IC50, uM) 8226): > 3 µM
p70 phosphorylation vs the parent B ([1]; 8226 cells, 0.5 uM): no increase
IC50 (MM1.S MM cell line): > 3 µM

CC(C)(C)OC(=O)NN=C1c2ccccc2-c2ccccc21 [6e, tert-Butyl 2-(9H-fluoren-9-ylidene)hydrazine-1-carboxylate]
IC50 (8226 MM cell line; read-out: MTT (IC50, uM) 8226): > 5 µM
anti-MM cytotoxicity in MTT assay compared to parent B (8226 MM cell line): did not show any activity
induction of p70 phosphorylation [1, 2]: did not show any activity
p70 phosphorylation vs the parent B ([1]; 8226 cells, 0.5 uM): no increase
IC50 (MM1.S MM cell line): > 5 µM

O=C(c1ccccc1)N(N=C1C(Cl)=C(Cl)C(Cl)=C1Cl)C(=O)c1ccccc1 [compound 4b, N-Benzoyl-N′-(perchlorocyclopenta-2,4-dien-1-ylidene)benzohydrazide]
IC50 (8226 MM cell line; read-out: MTT (IC50, uM) 8226): 0.8 µM
anti-MM cytotoxicity in MTT assay compared to parent B (8226 MM cell line): lower IC50s; also recorded: enhanced cytotoxic effects
induction of p70 phosphorylation [1, 2]: more effective than the parent compound B
IC50 (MM1.S MM cell line): 2 µM

CC(C)(C)NN=C1C(Cl)=C(Cl)C(Cl)=C1Cl [compound 3c, 1-(tert-Butyl)-2-(perchlorocyclopenta-2,4-dien-1-ylidene)hydrazine]
IC50 (8226 MM cell line; read-out: MTT (IC50, uM) 8226): > 3 µM
induction of p70 phosphorylation [1, 2]: only modest activity
p70 phosphorylation vs the parent B ([1]; 8226 cells, 0.5 uM): no increase
IC50 (MM1.S MM cell line): > 3 µM

COC1(OC)C(Cl)=C(Cl)C(Cl)=C1Cl [7b, 1,2,3,4-Tetrachloro-5,5-dimethoxycyclopenta-1,3-diene]
IC50 (8226 MM cell line; [3]): > 5 µM
anti-MM cytotoxicity in MTT assay compared to parent B (8226 MM cell line): poor activity
induction of p70 phosphorylation [1, 2]: poor activity
p70 phosphorylation vs the parent B ([1]; 8226 cells, 0.5 uM): no increase

ClC1=C(Cl)C(Cl)=C(Cl)C1=NNC1CCCCC1 [3b, 1-Cyclohexyl-2-(perchlorocyclopenta-2,4-dien-1-ylidene)hydrazine]
IC50 (8226 MM cell line; read-out: MTT (IC50, uM) 8226): > 3 µM
p70 phosphorylation vs the parent B ([1]; 8226 cells, 0.5 uM): no increase
IC50 (MM1.S MM cell line): > 3 µM

ON=C1C(Cl)=C(Cl)C(Cl)=C1Cl [7a, 2,3,4,5-Tetrachlorocyclopenta-2,4-dien-1-one oxime]
IC50 (8226 MM cell line; [3]): > 5 µM
anti-MM cytotoxicity in MTT assay compared to parent B (8226 MM cell line): poor activity
induction of p70 phosphorylation [1, 2]: poor activity
p70 phosphorylation vs the parent B ([1]; 8226 cells, 0.5 uM): no increase

COc1cccc(NN=C2C(Cl)=C(Cl)C(Cl)=C2Cl)c1 [3i, 1-(3-Methoxyphenyl)-2-(perchlorocyclopenta-2,4-dien-1-ylidene)hydrazine]
IC50 (8226 MM cell line; read-out: MTT (IC50, uM) 8226): > 3 µM
p70 phosphorylation vs the parent B ([1]; 8226 cells, 0.5 uM): no increase
IC50 (MM1.S MM cell line): > 3 µM

O=C(NN=C1C(Cl)=C(Cl)C(Cl)=C1Cl)c1ccccc1 [compound 4a, N′-(Perchlorocyclopenta-2,4-dien-1-ylidene)benzohydrazide]
IC50 (8226 MM cell line; read-out: MTT (IC50, uM) 8226): 0.6 µM
anti-MM cytotoxicity in MTT assay compared to parent B (8226 MM cell line): enhanced cytotoxic effects
toxicity to 8226 cells in p70 experiment ([1]; 0.5 uM): considerable cell death
enhancement of p70 phosphorylation ([1]; 8226 cells, 0.05-0.2 uM): no enhancement of p70 phosphorylation
induction of p70 phosphorylation ([1]; 8226 cells, 1 or 2 uM): toxic and showed degradation of p70
IC50 (MM1.S MM cell line): 0.8 µM

ClC1=C(Cl)C(Cl)=C(Cl)C1=NNc1cc(Cl)cc(Cl)c1 [3f, 1-(3,5-dichlorophenyl)-2-(perchlorocyclopenta-2,4-dien-1-ylidene)hydrazine]
IC50 (8226 MM cell line; read-out: MTT (IC50, uM) 8226): 0.8 µM
anti-MM cytotoxicity in MTT assay compared to parent B (8226 MM cell line): lower IC50s; also recorded: enhanced cytotoxic effects
IC50 (MM1.S MM cell line): 2 µM

CC(=O)NN=C1C(Cl)=C(Cl)C(Cl)=C1Cl [4c, N′-(Perchlorocyclopenta-2,4-dien-1-ylidene)acetohydrazide]
IC50 (8226 MM cell line; read-out: MTT (IC50, uM) 8226): 1 µM
induction of p70 phosphorylation [1, 2]: no increase
p70 phosphorylation vs the parent B ([1]; 8226 cells, 0.5 uM): no increase

Cc1ccc(C(=O)N(N=C2C(Cl)=C(Cl)C(Cl)=C2Cl)C(=O)c2ccc(C)cc2)cc1 [4f, 4-Methyl-N-(4-methylbenzoyl)-N′-(perchlorocyclopenta-2,4-dien-1-ylidene)benzohydrazide]
IC50 (8226 MM cell line; read-out: MTT (IC50, uM) 8226): 0.5 µM
anti-MM cytotoxicity in MTT assay compared to parent B (8226 MM cell line): enhanced cytotoxic effects
IC50 (MM1.S MM cell line): 0.5 µM

C#CC(C)(C)OC(=O)NN=C1C(Cl)=C(Cl)C(Cl)=C1Cl [4i, 2-Methylbut-3-yn-2-yl 2-(perchlorocyclopenta-2,4-dien-1-ylidene)hydrazine-1-carboxylate]
IC50 (8226 MM cell line; read-out: MTT (IC50, uM) 8226): > 5 µM
induction of p70 phosphorylation [1, 2]: minimal increase

NN=c1c2ccccc2oc2ccccc12 [6b, (9H-Xanthen-9-ylidene)hydrazine]
IC50 (8226 MM cell line; read-out: MTT (IC50, uM) 8226): > 5 µM
anti-MM cytotoxicity in MTT assay compared to parent B (8226 MM cell line): did not show any improvement
induction of p70 phosphorylation [1, 2]: did not show any improvement
p70 phosphorylation vs the parent B ([1]; 8226 cells, 0.5 uM): no increase
IC50 (MM1.S MM cell line): > 5 µM
